Measured values published in patent US20140336503A1, “RA[…] […] RELATED METHODS THEREOF” (The Regents of the University of Michigan, priority 2013, published 2014).

Assays:
human cathepsin K = target: T1, human cathepsin K (Homo sapiens, UniProt P43235); conditions: in vitro; cited from earlier work
T1 sequence (P43235 115-329): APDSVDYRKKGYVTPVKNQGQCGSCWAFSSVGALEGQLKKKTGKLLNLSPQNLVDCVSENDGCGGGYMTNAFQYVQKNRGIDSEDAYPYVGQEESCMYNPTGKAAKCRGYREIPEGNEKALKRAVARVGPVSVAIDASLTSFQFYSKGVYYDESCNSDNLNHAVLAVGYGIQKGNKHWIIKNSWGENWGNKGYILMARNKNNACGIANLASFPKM

osteoclasts in bone = experiment: microPET imaging of radioligand uptake into bone in normal rats, with blocking studies; type: in vivo; conditions: rat
From the text: Studies were done using imaging with Concorde Microsystems R4 and P4 PET scanners. Rats were anesthetized with isoflurane and maintained on 1% isoflurane throughout the imaging period. The animals were placed on their dorsal side in the scanner, and body temperature was maintained using a heating pad. A catheter was inserted into the tail vein for administration of radioactive solutions. Following a measured transmission scan, solutions of radioligands ([^11C]1 or ([^11C]2, 37-185 MBq in 0.5-1 mL volumes) were injected via the catheter, followed by a 1 ml flush of saline. For the blocking study, a 2 mg/kg dose of unlabeled compound 2 was administered 10 minutes prior to the injection of the radiolabeled [^11C]2. Emission data was collected for 60 minutes (12×5 min fames). The emission data was corrected for decay, dead time and random coincidences, then reconstructed using iterative ordered subset expectation maximization-maximum a posteriori (OSEM-MAP) yielding a reconstructed image resolution of approximately 1.4 mm. Volumetric regions of interest (ROIs) were defined using hand-drawn circular ROIs placed on the summed images, and the time-activity curves determined for each ROI (ASI Pro VM software: Siemens Medical Systems, Malvern, Pa.).

[1] = whole body biodistribution of radioactivity after intravenous injection in rats; type: in vivo, rat; conditions: female rats, i.v.; for Tissue biodistribution, Bone, avg: femur in its entirety
Experimental: The whole body biodistribution of radioactivity after intravenous injection of [^11C]1 was determined in rats. Animals (N =6, female CD rats) were lightly anesthetized (isoflurane) and injected via the tail vein with 1.85-4.44 MBq of radioligand formulated in 5% ethanol/saline. At selected times (5 and 40 min), groups (N=3) of animals were anesthetized, euthanized (decapitation) and samples of tissues removed. Tissue samples were weighed, counted for carbon-11, and the data calculated as % injected dose/g.

In the case of `COc1ccc(CCNC(=O)c2cnc(C#N)nc2NCC(C)(C)C)cc1` [[^11C]2, 2-cyano-N-(4-[^11C]methoxyphenethyl)-4-(neopentylamino)pyrimidine-5-carboxamide], the IC50 (human cathepsin K) is given as 0.003 nM.

For `COc1ccc(CCNC(=O)c2cnc(C#N)nc2NC2CCCCC2)cc1` [[^11C]1, 2-cyano-4-(cyclohexylamino)-N-(4-[^11C]methoxyphenethyl)-pyrimidine-5-carboxamide], the IC50 (human cathepsin K) is listed as 0.0222 nM.

In the case of `CC(C)(C)CNc1nc(C#N)ncc1C(=O)NCCc1ccc(O[11CH3])cc1` [[^11C]2, 2-cyano-N-(4-[^11C]methoxyphenethyl)-4-(neopentylamino)pyrimidine-5-carboxamide], the “bone uptake of radioactivity after blocking dose of unlabeled ligand 2” value (osteoclasts in bone; 2 mg/kg unlabeled 2, ten minutes prior to injection) is reported as “reduction of bone uptake of radioactivity to essentially levels equivalent to background in non-target tissues”.

With `[11CH3]Oc1ccc(CCNC(=O)c2cnc(C#N)nc2NC2CCCCC2)cc1` [[^11C]1, 2-cyano-4-(cyclohexylamino)-N-(4-[^11C]methoxyphenethyl)-pyrimidine-5-carboxamide] the “uptake and retention into target bone regions with low specific activity dose” value (osteoclasts in bone; 10.8 GBq/μmol, co-injection of 14 micrograms/kg of unlabeled 1) was “nearly full block”, the “uptake and retention after pretreatment with unlabeled CCX” value (osteoclasts in bone; microPET) was “reduced” and the “uptake in the growth plates (proximal humerus, distal ulnar, carpal, distal femur, proximal tibia, caudal vertebrae)” value (osteoclasts in bone; microPET) was “high uptake”. The “Tissue biodistribution, Adrenal, avg” value ([1]; 5 min) was 3.57 % injected dose/g, the “Tissue biodistribution, Blood, avg” value ([1]; 5 min) was 0.24 % injected dose/g and the “Tissue biodistribution, Brain, avg” value ([1]; 5 min) was 0.43 % injected dose/g. For the same molecule, the “Tissue biodistribution, Heart, avg” value ([1]; 5 min) was 1.23 % injected dose/g, the “Tissue biodistribution, Kidney, avg” value ([1]; 5 min) was 2.03 % injected dose/g and the “Tissue biodistribution, Liver, avg” value ([1]; 5 min) was 3.02 % injected dose/g. The “Tissue biodistribution, Lung, avg” value ([1]; 5 min) was 0.68 % injected dose/g, the “Tissue biodistribution, Muscle, avg” value ([1]; 5 min) was 0.11 % injected dose/g and the “Tissue biodistribution, Pancreas, avg” value ([1]; 5 min) was 1.68 % injected dose/g. The “Tissue biodistribution, Spleen, avg” value ([1]; 5 min) was 1.03 % injected dose/g, the “Tissue biodistribution, Bone, avg” value ([1]; 5 min) was 0.26 % injected dose/g and the “Tissue biodistribution, Adrenal, avg” value ([1]; 40 min) was 0.51 % injected dose/g. The “Tissue biodistribution, Blood, avg” value ([1]; 40 min) was 0.11 % injected dose/g, the “Tissue biodistribution, Brain, avg” value ([1]; 40 min) was 0.11 % injected dose/g and the “Tissue biodistribution, Heart, avg” value ([1]; 40 min) was 0.19 % injected dose/g. The “Tissue biodistribution, Kidney, avg” value ([1]; 40 min) was 0.41 % injected dose/g, the “Tissue biodistribution, Liver, avg” value ([1]; 40 min) was 0.68 % injected dose/g and the “Tissue biodistribution, Lung, avg” value ([1]; 40 min) was 0.16 % injected dose/g. The “Tissue biodistribution, Muscle, avg” value ([1]; 40 min) was 0.11 % injected dose/g, the “Tissue biodistribution, Pancreas, avg” value ([1]; 40 min) was 0.56 % injected dose/g and the “Tissue biodistribution, Spleen, avg” value ([1]; 40 min) was 0.22 % injected dose/g. For the same molecule, the “Tissue biodistribution, Bone, avg” value ([1]; 40 min) was 0.14 % injected dose/g.
